EP4685136A1, “AMINO LIPID, AND LIPID NANOPARTICLES AND USE THEREOF” (Shenzhen MagicRNA Biotechnology Co., Ltd., priority 2023, dated 2024)

Key:
[1] = Encapsulation efficiency of Luc-mRNA lipid nanoparticles (Quant-iT RiboGreen RNA Kit); format: physicochemical; conditions: LNP of amino lipid:DSPC:cholesterol:DMG-PEG2000 47.5:10:41:1.5 with Luc-mRNA; lipid to mRNA mass ratio about 40:1
Procedure: (§1) The amino lipid compound of the present invention (or DLin-MC3 or SM-102 (both purchased from AVT (Shanghai) Pharmaceutical Technology Co., Ltd.)), phospholipid lipid (DSPC), cholesterol, and PEGylated lipid (DMG-PEG2000) were mixed and dissolved in anhydrous ethanol at a molar ratio of 47.5:10:41:1.5. The resulting ethanol solution and citric acid buffer (50 mM, pH = 4.0) dissolved with Luc-mRNA (TriLink) were mixed in a microfluidic chip at a volume ratio of 1:3 using a microfluidic preparation system to prepare a crude solution of lipid nanoparticles, which was then dialyzed in 1X PBS at 4°C for 6 h using a dialysis cassette (Fisher, MWCO 20,000). The product was filtered through a 0.22 µm microporous filter membrane before use. The mass ratio of the amino lipid compound to luciferase mRNA (Luc mRNA) was about 40:1.
The encapsulation efficiency was determined according to the standard procedure of the Quant-iT RiboGreen RNA Kit. Table 1 Characterization data of LNPs prepared using representative amino lipid compounds

[2] = tested on: primary BMDC cells; assay: Transfection of Luc mRNA lipid nanoparticles on primary BMDC cells (ONE-Glo luciferase readout); format: cell-based, C57BL/6 mice; conditions: expression intensity of Luc mRNA on BMDCs; 10 µL LNP per well, 20,000 cells per well, 12 hours
Procedure: Animal preparation: 6-week-old female C57BL/6 mice weighing about 20 g were selected and raised in an SPF-grade feeding room. Animal experiments were conducted strictly in accordance with the guidelines of the National Institutes of Health and animal ethics requirements.
Cell acquisition: C57BL/6 mice were sacrificed by cervical dislocation and immersed in 75% alcohol for 5 minutes for disinfection. The thigh and tibia of the mice were dissected and the attached muscles were removed to expose the bone. The bone marrow in the tibia was blown out with a 1 mL syringe filled with PBS. The obtained bone marrow was dispersed by blowing and filtered through a 50 µm filter mesh to remove impurities. Red blood cell lysis solution (3-4 mL) was added to the obtained filtrate and allowed to stand for 5 minutes. Then, the supernatant was removed by centrifugation at 800 g for 5 minutes. The obtained cells were placed in 1640 culture medium (containing 10% fetal bovine serum, 20 ng/mL GMCSF, 10 ng/mL IL4) for being resuspended, and inoculated into 6-well plates at a density of 100,000 cells/mL of culture medium. The plates were placed in a cell culture incubator containing 5% CO2 at 37°C, and the medium was half-changed every 2 days. On the seventh day, the suspended cells and loosely adherent cells were collected and inoculated into 96-well all-white ELISA plates at a density of 20,000 cells per well, with a culture medium volume of 100 µL.
Cell transfection: the lipid nanoparticles encapsulating luciferase mRNA were added to a 96-well all-white ELISA plate with spreaded primary cells, and the volume of mRNA lipid nanoparticles added to each well was controlled to be 10 µL. Then, the plate was placed in an incubator with 5% CO2 concentration at 37°C for 12 hours.
Transfection efficiency detection: 20 µL of substrate ONE-Glo™ Luciferase was added to each well of a 96-well all-white ELISA plate, and the assay was performed using a multifunctional microplate reader (Biorek SynergyH1) after 1 min. The expression intensity of Luc mRNA transfected on BMDCs by lipid nanoparticles (LNPs) composed of representative amino lipid compounds is shown in Table 2, with DLin-MC3 and SM0102 as controls. Table 2 Expression intensity of transfection of representative amino lipid compounds on BMDCs

[3] = Particle size and PDI of Luc-mRNA lipid nanoparticles (Nano-ZS ZEN3600, Malvern); format: physicochemical; conditions: LNP of amino lipid:DSPC:cholesterol:DMG-PEG2000 47.5:10:41:1.5 with Luc-mRNA; lipid to mRNA mass ratio about 40:1
Procedure: as §1
The particle size and PDI (polydispersity index) of the prepared lipid nanoparticles were measured by Nano-ZSZEN3600 (Malvern). 20 µL of lipid nanoparticle (LNP) solution was taken for particle size measurement, and cycled three times with each cycle for 30 s.

Row | SMILES | Encapsulation efficiency (%) [1] [%] | Luminescence intensity [2] | Average particle size (nm) [3] [nm] | PDI [3]
1 | CCCCCCCCCCC(CCCOC(=O)CCCCC)OC(=O)CCCCCN(CCCO)CCCCCC(=O)OC(CCCCCCCCCC)CCCOC(=O)CCCCC (stereo not shown) [K4LA6B6O3] | 98.9 | 4.9 E+05 | 120 | 0.06
2 | CCCCCCC(COC(=O)CCCCC)OC(=O)CCCCCN(CCCCCC(=O)OC(CCCCCC)COC(=O)CCCCC)CCCOC(=O)CCCCCCN(C)C (stereo not shown) [E8LA6B6O3A6] | 97.6 | 2.8E+05 | 108 | 0.07
3 | CCCCCCC(COC(=O)C(CCCCC)CCCCC)OC(=O)CCCCCN(CCCO)CCCCCC(=O)OC(CCCCCC)COC(=O)C(CCCCC)CCCCC (stereo not shown) [E8CA5B6O3] | 95.8 | 2.3E+05 | 69 | 0.06
4 | CCCCCCCCCCCC(=O)OCC(CCCCCCCCCC)OC(=O)CCCCCN(CCCCCC(=O)OC(CCCCCCCCCC)COC(=O)CCCCCCCCCCC)CCCC(=O)O (stereo not shown) [E12LA12B6O30] | 98.2 | – | 127 | 0.03
5 | CCCCCCCCCCC(COC(=O)CCCCC)OC(=O)CCCCCN(CCCCCC(=O)OC(CCCCCCCCCC)COC(=O)CCCCC)CCCOC(=O)CCCN1CCN(C)CC1 (stereo not shown) [E12LA6B6O3A3] | 94.6 | – | 53 | 0.07
6 | CCCCCCCCCCC(CCCCOC(=O)CCCCC)OC(=O)CCCCCN(CCCO)CCCCCC(=O)OC(CCCCCCCCCC)CCCCOC(=O)CCCCC (stereo not shown) [K5LA6B6O3] | 96.2 | 4.8E+05 | 106 | 0.03
7 | CCCCCCCCCCC(COC(=O)CCCCC)OC(=O)CCCCCN(CCCCCC(=O)OC(CCCCCCCCCC)COC(=O)CCCCC)CCCOC(=O)CCN1CCN(C)CC1 (stereo not shown) [E12LA6B6O3A2] | – | 4.0E+05 | – | –
8 | CCCCCCCCCCCC(=O)OCC(CCCCCCCCCC)OC(=O)CCCCCN(CCCCCC(=O)OC(CCCCCCCCCC)COC(=O)CCCCCCCCCCC)CCCNC(=O)CCCN(C)C (stereo not shown) [E12LA12B6O3A11] | 95.6 | 1.4E+05 | 132 | 0.09
9 | CCCCCCCCCCC(CNC(=O)CCCCC)NC(=O)CCCCCN(CCCO)CCCCCC(=O)NC(CCCCCCCCCC)CNC(=O)CCCCC (stereo not shown) [E12N2LA6B6O3] | 90.3 | – | 168 | 0.06
10 | CCCCCCCCCCCC(=O)OCC(CCCCCCCCCC)OC(=O)CCCCCN(CCCO)CCCCCC(=O)OC(CCCCCCCCCC)COC(=O)CCCCCCCCCCC (stereo not shown) [E12LA12B6O3] | 97.5 | 4.1E+05 | 73 | 0.09
11 | CCCCCCCCCCC(COC(=O)CCCCC)OC(=O)CCCCCN(CCCCCC(=O)OC(CCCCCCCCCC)COC(=O)CCCCC)CCN1CCCCC1 (stereo not shown) [E12LA6B6O13] | 94.4 | – | 83 | 0.01
12 | CCCCCCCCCCC(COC(=O)CCCCC)OC(=O)CCCCCN(CCCCCC(=O)OC(CCCCCCCCCC)COC(=O)CCCCC)CCN1CCC(O)CC1 (stereo not shown) [E12LA6B6O15] | 95.2 | – | 90 | 0.12
13 | CCCCCCCCCCCC(=O)OCC(CCCCCC)OC(=O)CCCCCN(CCCO)CCCCCC(=O)OC(CCCCCC)COC(=O)CCCCCCCCCCC (stereo not shown) [E8LA12B6O3] | 95.67 | – | 72 | 0.09
14 | CCCCCCCCCCC(COC(=O)CCCCC)OC(=O)CCCCCN(CCCCCC(=O)OC(CCCCCCCCCC)COC(=O)CCCCC)CCCOC(=O)CCN(C)C (stereo not shown) [E12LA6B6O3A4] | 90.7 | – | 80 | 0.03
